Assay results taken from patent US10189841B2, “Purinones as ubiquitin-specific protease 1 inhibitors” (Forma Therapeutics, Inc., priority 2015, dated 2019).

These molecules were tested against USP1 (construct USP1 (I-785, GG670, 671AA)/UAF1 (I-677)-Flag) (Homo sapiens (Human), UniProt O94782, G670A/G671A) (assay: Ubiquitin-Rhodamine 110 assay for USP1 activity). Details: USP1/UAF1 25 pM, Ub-Rh110 25 nM, 30 min preincubation.
Assay type: biochemical
Procedure, shortened: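 Two formats with the USP1/UAF1 complex and 25 nM ubiquitin-rhodamine 110 in pH 8.0 Tris buffer with calcium, glutathione and detergent. Single-point screening used 10 µM, 100 pM enzyme and 45 min. Inhibition was set against no-enzyme and DMSO wells.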

USP1 (construct USP1 (I-785, GG670, 671AA)/UAF1 (I-677)-Flag), sequence (O94782 whole entry G670A/G671A): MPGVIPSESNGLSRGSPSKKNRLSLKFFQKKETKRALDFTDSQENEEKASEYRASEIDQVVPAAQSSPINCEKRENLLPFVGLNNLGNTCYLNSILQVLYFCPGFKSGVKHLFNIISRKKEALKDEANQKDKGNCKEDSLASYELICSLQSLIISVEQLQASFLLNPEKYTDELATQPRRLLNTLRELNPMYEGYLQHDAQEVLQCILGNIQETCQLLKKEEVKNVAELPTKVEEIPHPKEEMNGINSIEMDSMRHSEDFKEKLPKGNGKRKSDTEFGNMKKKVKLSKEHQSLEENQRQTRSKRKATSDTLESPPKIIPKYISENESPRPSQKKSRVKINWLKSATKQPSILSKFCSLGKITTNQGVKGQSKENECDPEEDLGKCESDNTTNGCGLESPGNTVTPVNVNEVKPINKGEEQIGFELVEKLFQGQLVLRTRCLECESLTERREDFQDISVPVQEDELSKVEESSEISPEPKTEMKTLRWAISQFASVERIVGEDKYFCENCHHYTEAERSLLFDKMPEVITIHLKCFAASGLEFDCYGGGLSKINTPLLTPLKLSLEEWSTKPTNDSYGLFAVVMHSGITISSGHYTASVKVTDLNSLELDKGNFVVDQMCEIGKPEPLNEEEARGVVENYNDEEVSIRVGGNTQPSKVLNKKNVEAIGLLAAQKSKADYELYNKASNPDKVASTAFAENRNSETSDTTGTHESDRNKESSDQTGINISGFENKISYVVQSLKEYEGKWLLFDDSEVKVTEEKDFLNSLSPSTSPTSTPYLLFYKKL
USP1 (construct USP1 (I-785, GG670, 671AA)/UAF1 (I-677)-Flag), sequence (Q8TAF3 whole entry partner): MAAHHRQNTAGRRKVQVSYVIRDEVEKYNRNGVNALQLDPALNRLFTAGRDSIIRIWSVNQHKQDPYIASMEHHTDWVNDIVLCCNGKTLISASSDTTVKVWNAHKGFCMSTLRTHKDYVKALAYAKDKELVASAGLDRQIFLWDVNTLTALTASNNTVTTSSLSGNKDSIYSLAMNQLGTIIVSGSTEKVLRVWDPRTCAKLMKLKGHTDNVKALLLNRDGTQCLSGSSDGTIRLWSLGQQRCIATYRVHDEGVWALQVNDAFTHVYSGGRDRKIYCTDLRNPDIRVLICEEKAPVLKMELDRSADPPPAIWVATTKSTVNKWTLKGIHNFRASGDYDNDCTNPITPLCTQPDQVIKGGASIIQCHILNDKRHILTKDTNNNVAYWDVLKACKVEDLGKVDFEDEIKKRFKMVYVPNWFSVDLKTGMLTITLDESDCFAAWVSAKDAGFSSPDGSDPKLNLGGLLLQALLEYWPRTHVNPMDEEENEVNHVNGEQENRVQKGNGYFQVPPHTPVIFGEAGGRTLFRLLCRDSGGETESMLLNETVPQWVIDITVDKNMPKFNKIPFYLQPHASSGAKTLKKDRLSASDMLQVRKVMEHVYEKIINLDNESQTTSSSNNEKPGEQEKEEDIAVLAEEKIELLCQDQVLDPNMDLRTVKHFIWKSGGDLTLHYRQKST

Row | Structure (SMILES) | IC50
1 | CC(C)c1ccccc1-c1ncc2[nH]c(=O)n(Cc3ccc(-c4nc(Cl)cn4C)cc3)c2n1 [Compound I-198, 9-(4-(4-chloro-1-methyl-1H-imidazol-2-yl)benzyl)-2-(2-isopropylphenyl)-7,9-dihydro-8H-purin-8-one] | < 50 nM
2 | CCC(COC)Oc1ncccc1-c1ncc2[nH]c(=O)n(Cc3ccc(-c4nc(C(F)(F)F)cn4C)cc3)c2n1 (stereo not drawn) [Compound I-428, 2-(2-((1-methoxybutan-2-yl)oxy)pyridin-3-yl)-9-(4-(1-methyl-4-(trifluoromethyl)-1H-imidazol-2-yl)benzyl)-7,9-dihydro-8H-purin-8-one] | 50 to 200 nM
3 | CC(C)c1ccccc1-c1ncc2[nH]c(=O)n(Cc3ccc(-n4ccc(C5CCNCC5)n4)cc3)c2n1 [Compound I-431, 2-(2-isopropylphenyl)-9-(4-(3-(piperidin-4-yl)-1H-pyrazol-1-yl)benzyl)-7,9-dihydro-8H-purin-8-one] | 50 to 200 nM
4 | Cc1cc(Cl)nn1-c1ccc(Cn2c(=O)[nH]c3cnc(-c4ccccc4C(C)C)nc32)cc1 [Compound I-210, 9-(4-(3-chloro-5-methyl-1H-pyrazol-1-yl)benzyl)-2-(2-isopropylphenyl)-7,9-dihydro-8H-purin-8-one] | < 50 nM
5 | CC(C)c1ccccc1-c1ncc2[nH]c(=O)n(Cc3ccc(C(=O)N4CCOC[C@@H]4C)cc3)c2n1 [Compound I-405, (S)-2-(2-isopropylphenyl)-9-(4-(3-methylmorpholine-4-carbonyl)benzyl)-7,9-dihydro-8H-purin-8-one] | 200 to 2000 nM
6 | CC(C)c1ccccc1-c1ncc2[nH]c(=O)n([C@H](C)c3ccc(F)cc3)c2n1 [Compound I-178, (R)-9-(1-(4-fluorophenyl)ethyl)-2-(2-isopropylphenyl)-7,9-dihydro-8H-purin-8-one] | < 50 nM
7 | CC(C)c1ccccc1-c1ncc2[nH]c(=O)n(Cc3ccc(-c4cnnn4C)cc3)c2n1 [Compound I-298, 2-(2-isopropylphenyl)-9-(4-(1-methyl-1H-1,2,3-triazol-5-yl)benzyl)-7,9-dihydro-8H-purin-8-one] | > 2000 nM
8 | CN1CCN(c2ncccc2-c2ncc3[nH]c(=O)n(Cc4ccc(-c5nc(C(F)(F)F)cn5C)cc4)c3n2)CC1 [Compound I-328, 9-(4-(1-methyl-4-(trifluoromethyl)-1H-imidazol-2-yl)benzyl)-2-(2-(4-methylpiperazin-1-yl)pyridin-3-yl)-7,9-dihydro-8H-purin-8-one] | 200 to 2000 nM
9 | CC(C)c1ccccc1-c1ncc2[nH]c(=O)n(Cc3ccc(C(=O)N4CC[C@H](O)C4)cc3)c2n1 [Compound I-378, (S)-9-(4-(3-hydroxypyrrolidine-1-carbonyl)benzyl)-2-(2-isopropylphenyl)-7,9-dihydro-8H-purin-8-one] | 200 to 2000 nM
10 | CC(C)c1ccccc1-c1ncc2[nH]c(=O)n(Cc3ccc(-c4ncc[nH]4)cc3)c2n1 [Compound I-437, 9-(4-(1H-imidazol-2-yl)benzyl)-2-(2-isopropylphenyl)-7,9-dihydro-8H-purin-8-one] | < 50 nM
11 | CC(C)c1ccccc1-c1ncc2[nH]c(=O)n(Cc3ccc(-c4cn(C(C)C)cn4)cc3)c2n1 [Compound I-275, 9-(4-(1-isopropyl-1H-imidazol-4-yl)benzyl)-2-(2-isopropylphenyl)-7,9-dihydro-8H-purin-8-one] | < 50 nM
12 | CC(=O)N1CCC(c2ccn(-c3ccc(Cn4c(=O)[nH]c5cnc(-c6ccccc6C(C)C)nc54)cc3)n2)CC1 [Compound I-463, 9-(4-(3-(1-acetylpiperidin-4-yl)-1H-pyrazol-1-yl)benzyl)-2-(2-isopropylphenyl)-7,9-dihydro-8H-purin-8-one] | < 50 nM
13 | CC(C)c1ccccc1-c1ncc2[nH]c(=O)n(Cc3ccc(-c4nc(C(F)(F)F)cn4C4CN(C)C4)cc3)c2n1 [Compound I-447, 2-(2-isopropylphenyl)-9-(4-(1-(1-methylazetidin-3-yl)-4-(trifluoromethyl)-1H-imidazol-2-yl)benzyl)-7,9-dihydro-8H-purin-8-one] | < 50 nM
14 | Cc1cc(C#N)nn1-c1ccc(Cn2c(=O)[nH]c3cnc(-c4ccccc4C(C)C)nc32)cc1 [Compound I-207, 1-(4-((2-(2-isopropylphenyl)-8-oxo-7,8-dihydro-9H-purin-9-yl)methyl)phenyl)-5-methyl-1H-pyrazole-3-carbonitrile] | < 50 nM
15 | CC(C)c1ccccc1-c1ncc2[nH]c(=O)n(C3CCC34CN(S(=O)(=O)C(C)C)C4)c2n1 (stereo not drawn) [Compound I-452, 2-(2-isopropylphenyl)-9-(2-(isopropylsulfonyl)-2-azaspiro[3.3]heptan-5-yl)-7,9-dihydro-8H-purin-8-one] | 200 to 2000 nM
16 | [2H]C([2H])([2H])n1cc(C(F)(F)F)nc1-c1ccc(Cn2c(=O)n(C([2H])([2H])[2H])c3cnc(-c4cccnc4C(C)C)nc32)cc1 [Compound I-130, 2-(2-isopropylpyridin-3-yl)-7-(methyl-d3)-9-(4-(1-(methyl-d3)-4-(trifluoromethyl)-1H-imidazol-2-yl)benzyl)-7,9-dihydro-8H-purin-8-one] | < 50 nM
17 | Cn1cc(C(F)(F)F)nc1-c1ccc(Cn2c(=O)[nH]c3cnc(-c4ccccc4[S+](C)[O-])nc32)cc1 (stereo not drawn) [Compound I-86, 9-(4-(1-methyl-4-(trifluoromethyl)-1H-imidazol-2-yl)benzyl)-2-(2-(methylsulfinyl)phenyl)-7,9-dihydro-8H-purin-8-one] | 200 to 2000 nM
18 | Cn1cc(C(F)(F)F)nc1-c1ccc(Cn2c(=O)[nH]c3cnc(-c4cccnc4NCC4CCCO4)nc32)cc1 (stereo not drawn) [Compound I-320, 9-(4-(1-methyl-4-(trifluoromethyl)-1H-imidazol-2-yl)benzyl)-2-(2-(((tetrahydrofuran-2-yl)methyl)amino)pyridin-3-yl)-7,9-dihydro-8H-purin-8-one] | 50 to 200 nM
19 | COc1c(F)cccc1-c1ncc2[nH]c(=O)n(Cc3ccc(-n4nccn4)cc3)c2n1 [Compound I-16, 9-(4-(2H-1,2,3-triazol-2-yl)benzyl)-2-(3-fluoro-2-methoxyphenyl)-7,9-dihydro-8H-purin-8-one] | > 2000 nM
20 | CC(C)c1c(F)cccc1-c1ncc2[nH]c(=O)n(Cc3ccc(-n4nccn4)cc3)c2n1 [Compound I-166, 9-(4-(2H-1,2,3-triazol-2-yl)benzyl)-2-(3-fluoro-2-isopropylphenyl)-7,9-dihydro-8H-purin-8-one] | 50 to 200 nM
21 | CC(C)c1ccccc1-c1ncc2[nH]c(=O)n(Cc3ccc(-c4cnn(C5CCNCC5)c4)cc3)c2n1 [Compound I-540, 2-(2-isopropylphenyl)-9-(4-(1-(piperidin-4-yl)-1H-pyrazol-4-yl)benzyl)-7,9-dihydro-8H-purin-8-one] | 200 to 2000 nM
22 | CC(C)c1ccccc1-c1ncc2[nH]c(=O)n(Cc3ccc(C(=O)N4CCCCC4C)cc3)c2n1 (stereo not drawn) [Compound I-398, 2-(2-isopropylphenyl)-9-(4-(2-methylpiperidine-1-carbonyl)benzyl)-7,9-dihydro-8H-purin-8-one] | < 50 nM
23 | [2H]C([2H])([2H])n1c(=O)n(Cc2ccc(-c3nc(C(F)(F)F)cn3C)cc2)c2nc(-c3cccnc3C(C)C)ncc21 [Compound I-129, 2-(2-isopropylpyridin-3-yl)-7-(methyl-d3)-9-(4-(1-methyl-4-(trifluoromethyl)-1H-imidazol-2-yl)benzyl)-7,9-dihydro-8H-purin-8-one] | < 50 nM
24 | CC(C)c1ccccc1-c1ncc2[nH]c(=O)n(Cc3ncc(-n4cccn4)cn3)c2n1 [Compound I-509, 9-((5-(1H-pyrazol-1-yl)pyrimidin-2-yl)methyl)-2-(2-isopropylphenyl)-7,9-dihydro-8H-purin-8-one] | > 2000 nM
